The source made the active and inactive calls. The rule behind the calls is not given here.
Legend:
[1] = target: T1, Free fatty acid receptor 4 (Homo sapiens, UniProt Q5NUL3); experiment: Agonist activity at human FFAR4 expressed in CHO cells assessed as beta-arrestin recruitment after 90 mins by luminescence assay; assay type: functional, cell-based
T1 sequence (Q5NUL3 whole entry): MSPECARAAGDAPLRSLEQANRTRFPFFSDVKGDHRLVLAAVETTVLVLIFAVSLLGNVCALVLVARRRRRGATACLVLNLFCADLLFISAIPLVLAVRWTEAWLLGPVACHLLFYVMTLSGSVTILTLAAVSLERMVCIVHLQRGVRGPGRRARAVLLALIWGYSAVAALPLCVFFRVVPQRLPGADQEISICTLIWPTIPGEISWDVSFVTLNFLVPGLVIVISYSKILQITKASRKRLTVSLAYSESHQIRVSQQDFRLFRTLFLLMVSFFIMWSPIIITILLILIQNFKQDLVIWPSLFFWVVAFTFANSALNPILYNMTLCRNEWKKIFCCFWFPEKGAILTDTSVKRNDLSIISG

[2] = Clearance in Sprague-Dawley rat at 10 mg/kg, po administered as single dose by LC-PDA-MS/MS analysis; assay type: ADME, organism-based; details: in vivo
[3] = Cmax in Sprague-Dawley rat at 10 mg/kg, po administered as single dose by LC-PDA-MS/MS analysis; assay type: ADME, organism-based; set-up: dose 10 mg/kg, route oral; details: in vivo
[4] = AUC (0 to 24 hrs) in Sprague-Dawley rat at 10 mg/kg, po administered as single dose by LC-PDA-MS/MS analysis; assay type: ADME, organism-based; set-up: time < 24 hr, dose 10 mg/kg, route oral; details: in vivo
[5] = Half life in Sprague-Dawley rat at 10 mg/kg, po administered as single dose by LC-PDA-MS/MS analysis; assay type: ADME, organism-based; details: in vivo
Mus musculus [6] = experiment: Toxicity in C57BL/6 DIO mouse model at 30 mg/kg administered via gavage twice daily for 28 days; assay type: organism-based; details: in vivo, po, 672 h
[7] = Plasma clearance in rat; assay type: ADME, organism-based
Mus musculus [8] = experiment: Hypoglycemic activity in C57BL/6 DIO mouse model assessed as decrease in blood glucose AUC (0 to 120 mins) at 30 mg/kg administered via gavage twice daily for 28 days measured before glucose challenge by OGTT; assay type: functional, organism-based; details: tested as the 2H-labelled form
Mus musculus [9] = experiment: Hypoglycemic activity in C57BL/6 DIO mouse model assessed as decrease in blood glucose AUC (0 to 120 mins) at 30 mg/kg administered via gavage twice daily for 28 days measured on day 29 by OGTT; assay type: functional, organism-based; details: tested as the 2H-labelled form
Mus musculus [10] = experiment: Hypoglycemic activity in C57BL/6 DIO mouse model assessed as fasting glucose levels at 30 mg/kg administered via gavage twice daily for 28 days measured on day 29 by OGTT; assay type: functional, organism-based; details: tested as the 2H-labelled form

| EC50 [1] [µM] | CL/F [2] [mL/min/kg] | Cmax [3] [ng/mL] | AUC(0-t) at 24 h [4] [ng·h/mL] | half-life [5] [h] | clearance [7] [mL/min/kg] | Compound | Activity (Mus musculus [6]) | Activity (Mus musculus [8]) | Activity (Mus musculus [9]) | Activity (Mus musculus [10]) |
| --- | --- | --- | --- | --- | --- | --- | --- | --- | --- | --- |
| > 10 |  |  |  |  |  | Cc1cc(OCCCS(C)(=O)=O)cc(C)c1-c1cccc(COc2ccc3c(c2)OC[C@H]3CC(=O)O)c1 |  |  |  |  |
|  | 16.2 | 2040 | 6280 | 1.66 |  | [2H]C([2H])(Cc1ccc(OCc2cc(F)ccc2-c2ccc(C)cc2)cc1)C(=O)O | Non-Toxic |  |  |  |
|  | 61.2 | 969 | 1370 | 0.79 | 61.2 | Cc1ccc(-c2ccc(F)cc2COc2ccc(CCC(=O)O)cc2)cc1 |  | inactive | Active | Active |

Reference: ChEMBL document CHEMBL4177656, “Improving metabolic stability with deuterium: The discovery of GPU-028, a potent free fatty acid receptor 4 agonists” (Bioorg Med Chem, 2017)
